#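 Interpolation was linear, between the two tested concentrations surrounding the appropriate level; five concentrations were tested over 48 hours in 96-well plates. Abbreviation: GI50, concentration required for 50% inhibition of growth. At the TGI there is no net growth.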
# How the values were obtained:
# Test in all cases: NCI tumour cell line growth inhibition, 48 h
# [1] = tested on: COLO 205 colon
# [2] = tested on: SF-539 CNS
# [3] = tested on: NCI-H23 lung
# [4] = tested on: K-562 leukemia
# [5] = tested on: IGROV1 ovarian
# [6] = tested on: HCT-15 colon
# [7] = tested on: NCI-H522 lung
# [8] = tested on: SF-295 CNS
# [9] = tested on: UO-31 renal
# [10] = tested on: CCRF-CEM leukemia
Structure (SMILES),GI50 [1] [µM],TGI [1] [µM],GI50 [2] [µM],TGI [2] [µM],GI50 [3] [µM],TGI [3] [µM],GI50 [4] [µM],TGI [4] [µM],GI50 [5] [µM],TGI [5] [µM],GI50 [6] [µM],TGI [6] [µM],GI50 [7] [µM],TGI [7] [µM],GI50 [8] [µM],TGI [8] [µM],GI50 [9] [µM],TGI [9] [µM],TGI [10] [µM],GI50 [10] [µM]
N#Cc1cc2c(cc1Cl)Sc1nnc(Nc3cccc4ccccc34)n1S2(=O)=O,2.34,4.52,2.4,5.2,1.8,3.43,4.08,> 100,7.38,21.2,4.74,24.4,21.6,> 100,16.8,31.8,7.41,20.5,,
CCOC(=O)C(CCCNC(=O)OC(C)(C)C)N(Cc1ccc(OC)cc1OC)C(=O)CC(=O)CP(=O)(OCC)OCC (configuration not stated),,> 100,,> 100,,> 100,,> 100,,> 100,,,,> 100,,> 100,,> 100,> 100,
C[P+]1(c2ccccc2)CCCCC1,,> 100,,> 100,,> 100,,> 100,,> 100,,> 100,,,,> 100,,> 100,> 100,
CCc1ccccc1NC(=O)CC1NC(=O)CS1 (configuration not stated),,> 100,,> 100,,> 100,,> 100,,> 100,,,,> 100,,> 100,,> 100,> 100,
CN1CCCC1c1cccnc1.O=C(O)c1ccccc1O.O=C([O-])c1ccccc1[OH2+].O=C([O-])c1ccccc1[OH2+].[Mn+2] (configuration not stated),> 100,> 100,,,> 100,> 100,> 100,> 100,> 100,> 100,> 100,> 100,16.7,36.4,> 100,> 100,> 100,> 100,97.8,24.8
CC(=O)Nc1ccc(S(=O)(=O)NN(C)S(=O)(=O)c2ccc(C)cc2)cc1,,> 100,,> 100,,> 100,,> 100,,> 100,,,,> 100,,> 100,,> 100,> 100,
N#CC1C(N)=NNC12Nc1ccccc1S2 (configuration not stated),26.5,82.5,,,5.23,22.8,14.1,34.7,3.22,20.6,15.5,64.2,7.8,29.7,17.2,64.2,33.1,> 100,,
O=C1C(Sc2ccc3ccccc3c2)=C(Sc2ccc3ccccc3c2)C(=O)c2ccccc21,,12.8,,22.8,,22.1,,19,,,,23.5,,10.6,,,,15.8,,
C=CC(=O)N[C@@H](/C=C/C(=O)OCC)Cc1ccc(-c2cc(Cl)cc(Cl)c2)cc1,14.8,53.9,16.6,39.1,11.8,> 100,15.7,> 100,12.7,> 100,8.01,> 100,7.6,24.9,13.5,83.5,4.42,96.2,,
CC1CCC2C(CN(CC3=C(C(F)(F)F)OC4OC5(C)CCC6C(C)CCC3C46OO5)CC3=C(C(F)(F)F)OC4OC5(C)CCC6C(C)CCC3C46OO5)=C(C(F)(F)F)OC3OC4(C)CCC1C32OO4 (configuration not stated),7.64,28.6,11.9,38.6,6.04,19.7,5.58,22.1,,,10,25.7,16.2,42.2,,,29.1,> 100,28,4.8
COc1ccc(-c2c3c(N)c4c(nc3nc3c2c(C)nn3-c2ccccc2)CCCC4)cc1,2.32,5.91,14.5,29.2,,,2.3,6.85,4.26,18.6,3.08,10.9,2.91,12.2,10.1,23.3,2.46,11.5,6.86,2.18
C=CC[N+]1(CC)CCN=C1CCCCCCCCCCCCCCCCC (configuration not stated),0.651,2.29,0.752,2.05,0.119,0.589,,,0.237,0.475,,,,,0.249,0.936,1.14,2.43,,
O=C1C(Nc2cccc(O)c2)=C(Sc2ccccc2)C(=O)N1Cc1ccccc1,17,35.9,,,11.4,27.8,3.71,17.1,,,12.4,38.8,5.75,23.9,13.5,50.2,4.98,18,10.1,1.88
Cc1nnc(N/N=C(/C(=O)C(C#N)c2ccc(Cl)cc2)C(C#N)c2ccc(Cl)cc2)n1N (configuration not stated),,32.5,,,,35.3,,45.4,,,,49.4,,32.3,,30.9,,34.1,> 100,
CC(=O)[CH-]C(C)=O.CC(=O)[CH-]C(C)=O.CC(=O)[CH-]C(C)=O.[Ga+3],> 100,> 100,> 100,> 100,> 100,> 100,,,> 100,> 100,> 100,> 100,> 100,> 100,> 100,> 100,> 100,> 100,,
Cc1ccc(S(=O)(=O)NC(=O)OC23COCN2COC3)cc1,,> 100,,> 100,,> 100,,> 100,,> 100,,> 100,,> 100,,> 100,,> 100,,
Fc1ccc2nc(-c3nc(-c4ccccc4)n4ccccc34)[nH]c2c1,3.42,13.1,2.32,6.85,3.54,17,3.47,> 100,1.95,5.3,4.29,27.7,2.43,5.6,,,1.75,5.15,> 100,5.28
COc1cc(/C=C/C(=O)O[C@H]2[C@H](O[C@@H]3O[C@@H](C)[C@H](O)[C@@H](O)[C@H]3O)[C@@H](O)[C@H](OCCc3ccc(O)c(O)c3)O[C@@H]2COC2OCC(O)(CO)C2O)ccc1O (some centres not stated),> 100,> 100,,,,,63.3,> 100,> 100,> 100,> 100,> 100,> 100,> 100,> 100,> 100,> 100,> 100,,
N#C/C(=C1\OC(=N)C(c2ccc(Cl)cc2Cl)C1=O)c1ccc(Cl)cc1Cl (configuration not stated),,> 100,,> 100,,> 100,,> 100,,> 100,,> 100,,> 100,,> 100,,> 100,,
Clc1ccc([I+]c2ccc(Cl)cc2Cl)c(Cl)c1,1.95,3.64,1.8,3.39,2.13,4.83,2.03,5.1,,,2.06,5.25,1.62,3.01,2.58,7.57,1.48,2.98,5.32,2.09
O=C1/C(=C/c2ccccc2O)N=C(c2ccccc2)N1c1cc(C(F)(F)F)ccc1Cl,> 100,> 100,59.5,> 100,80.1,> 100,> 100,> 100,14.3,64.3,64.7,> 100,48.4,> 100,23.2,52.6,94.2,> 100,,
CC(C)(C)c1cc(C(=O)O)c2c(c1)C(=O)OC2(c1ccccc1)c1ccccc1C(=O)O (configuration not stated),,> 100,,> 100,,> 100,,> 100,> 100,> 100,,> 100,,,,> 100,,> 100,> 100,
O=C(c1c(O)cc(O)cc1O)C1Cc2ccccc21 (configuration not stated),,> 100,,> 100,,,,> 100,,> 100,,> 100,,> 100,,> 100,,> 100,> 100,
C[C@H]1CN(C2COC2)CCN1c1ccc(Nc2cc(-c3ccnc(N4CCn5c(cc6c5CC(C)(C)C6)C4=O)c3CO)cn(C)c2=O)nc1,27.1,> 100,21.4,66.9,> 100,> 100,,,19.7,> 100,47,> 100,56.3,> 100,68.6,> 100,21.7,> 100,> 100,21.4
